US10093678B2, “Azaspiro derivatives as TRPM8 antagonists” (RaQualia Pharma Inc., priority 2014, dated 2018)

Molecular target: T1, human TRPM8 (Homo sapiens, UniProt Q7Z2W7)
T1 construct: expressed in transfected cells; host or cells: HEK293
Assay: Menthol-induced Ca2+ influx in HEK293 cells stably expressing human TRPM8
Assay type: cell-based
Conditions: 30 microM menthol-induced Ca2+ influx, read-out: IC50 against TRPM8
Protocol: Measurement of the Menthol-Induced Ca^2+ Influx in HEK293 Cells Stably Expressing Human TRPM8
A cell-based Ca^2+ influx assay using HEK293 cells stably expressing human TRPM8 is used to identify the activity of compounds.
HEK293 cells stably expressing human TRPM8 are grown in T175 flasks at 37° C. in a 5% CO2 humidified incubator to about 80% confluence. Media composition consists of Dulbecco's Modified Eagle Medium (high glucose), 10% fetal calf serum (FCS), 100 units/mLPenicillin, 100 microg/mL Streptomycin and 600 microg/mL Geneticine. At 24 hours prior to assay, cells are seeded in poly-D-lysine coated 384-well plates (BD FALCON) at a density of 30,000 cells per well in culture medium and grown overnight in 5% CO2 at 37° C. On the assay day, growth media is removed and cells are loaded with 0.5 microM Fluo4-AM (Molecular Probes) and 0.005% Pluronic F-127 dissolved in assay buffer (Hank's balanced salt solution (HBSS), 19.4 mM HEPES pH7.4, 2.5 mM Probenecid) for 1 hour at room temperature. After washing with assay buffer, the cells are preincubated with various concentrations of the compounds for 5 min. The changes in intracellular calcium concentration by addition of 30 microM menthol are monitored by the cell imaging technology by Hamamatsu Photonics Functional Drug Screening System (FDSS).
The IC50 values for compounds of the present invention are determined from 11-point dose-response studies. Curves are generated using the average of duplicate wells for each data point. Finally, the IC50 values are calculated with the best-fit dose curve determined by XLfit (ID Business Solutions Ltd.).

T1 sequence (Q7Z2W7 whole entry): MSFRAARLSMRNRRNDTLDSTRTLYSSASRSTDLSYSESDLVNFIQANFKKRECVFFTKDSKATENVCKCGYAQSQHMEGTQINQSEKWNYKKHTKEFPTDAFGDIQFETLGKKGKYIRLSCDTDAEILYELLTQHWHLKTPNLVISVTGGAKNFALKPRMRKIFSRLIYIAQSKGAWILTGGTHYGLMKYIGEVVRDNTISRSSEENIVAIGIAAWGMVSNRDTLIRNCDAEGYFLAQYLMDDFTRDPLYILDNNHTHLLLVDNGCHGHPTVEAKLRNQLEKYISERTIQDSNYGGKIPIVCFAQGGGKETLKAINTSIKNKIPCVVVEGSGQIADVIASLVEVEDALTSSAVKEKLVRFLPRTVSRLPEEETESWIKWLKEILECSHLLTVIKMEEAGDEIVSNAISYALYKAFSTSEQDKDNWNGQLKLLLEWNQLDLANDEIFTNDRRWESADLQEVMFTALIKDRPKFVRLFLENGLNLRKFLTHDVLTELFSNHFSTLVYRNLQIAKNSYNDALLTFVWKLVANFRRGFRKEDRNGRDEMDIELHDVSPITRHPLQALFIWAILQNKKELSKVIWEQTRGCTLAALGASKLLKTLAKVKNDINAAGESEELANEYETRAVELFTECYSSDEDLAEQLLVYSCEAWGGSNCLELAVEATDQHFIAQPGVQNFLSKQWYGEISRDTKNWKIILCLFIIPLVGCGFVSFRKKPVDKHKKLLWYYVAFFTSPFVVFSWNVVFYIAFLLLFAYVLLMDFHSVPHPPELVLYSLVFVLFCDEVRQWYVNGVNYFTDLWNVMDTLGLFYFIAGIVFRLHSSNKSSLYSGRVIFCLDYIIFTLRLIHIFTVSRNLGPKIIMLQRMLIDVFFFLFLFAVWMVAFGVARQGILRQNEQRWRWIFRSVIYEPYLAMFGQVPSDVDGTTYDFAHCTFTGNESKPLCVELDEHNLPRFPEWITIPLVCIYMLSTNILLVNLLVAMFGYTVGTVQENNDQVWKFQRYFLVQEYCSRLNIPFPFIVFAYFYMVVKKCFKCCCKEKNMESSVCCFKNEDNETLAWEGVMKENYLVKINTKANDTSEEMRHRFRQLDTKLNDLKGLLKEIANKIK

IC50 [nM]	SMILES
< 10	O=C(CN1C(=O)NC2(CCC(F)(F)CC2)C1=O)c1ccc(-c2ccnc3[nH]ncc23)cc1 [Example 6-1]
< 10	O=C(CN1C(=O)NC2(CCC(F)(F)CC2)C1=O)c1ccc(-c2ncnc3ccccc23)cc1 [Example 6-2]
< 10	N#Cc1nccnc1-c1ccc(C(=O)CN2C(=O)NC3(CCC(F)(F)CC3)C2=O)cc1 [Example 6-3]
< 10	O=C(CN1C(=O)NC2(CCC(F)(F)CC2)C1=O)c1ccc(-c2cncc3[nH]ncc23)cc1 [Example 6-4]
< 10	O=C(CN1C(=O)NC2(CCC(F)(F)CC2)C1=O)c1ccc(-c2cncc3[nH]ccc23)cc1 [Example 6-5]
< 10	O=C(CN1C(=O)NC2(CCC(F)(F)CC2)C1=O)c1ccc(-c2nccnc2CO)cc1 [Example 6-6]
< 10	Cc1cnc(C)c(-c2ccc(C(=O)CN3C(=O)NC4(CCC(F)(F)CC4)C3=O)cc2)n1 [Example 6-7]
< 10	O=C(CN1C(=O)NC2(CCC(F)(F)CC2)C1=O)c1ccc(-c2ncnc3[nH]ccc23)cc1 [Example 6-8]
< 100	O=C(CN1C(=O)NC2(CCC(F)(F)CC2)C1=O)c1ccc(-c2cccnc2CO)cc1 [Example 6-9]
< 100	O=C(CN1C(=O)NC2(CCC(F)(F)CC2)C1=O)c1ccc(-c2cnccc2CO)cc1 [Example 6-10]
< 100	Cc1nccnc1-c1ccc(C(=O)CN2C(=O)NC3(CCC(F)(F)CC3)C2=O)cc1 [Example 6-11]
< 100	Cc1ncsc1-c1ccc(C(=O)CN2C(=O)NC3(CCC(F)(F)CC3)C2=O)cc1 [Example 6-12]
< 100	O=C(CN1C(=O)NC2(CCC(F)(F)CC2)C1=O)c1ccc(-c2ccnc3[nH]ccc23)cc1 [Example 6-13]
< 100	Cc1ccnnc1-c1ccc(C(=O)CN2C(=O)NC3(CCC(F)(F)CC3)C2=O)cc1 [Example 6-14]
< 100	N#Cc1ncccc1-c1ccc(C(=O)CN2C(=O)NC3(CCC(F)(F)CC3)C2=O)cc1 [Example 6-15]
< 100	N#Cc1ccncc1-c1ccc(C(=O)CN2C(=O)NC3(CCC(F)(F)CC3)C2=O)cc1 [Example 6-16]

IC50 [nM]	SMILES
< 100	O=C(CN1C(=O)NC2(CCC(F)(F)CC2)C1=O)c1ccc(-c2cccnc2OCCO)cc1 [Example 6-17]
< 100	O=C(CN1C(=O)NC2(CCC(F)(F)CC2)C1=O)c1ccc(-c2nncc3ccccc23)cc1 [Example 6-18]
< 100	O=C(CN1C(=O)NC2(CCC(F)(F)CC2)C1=O)c1ccc(-c2ccccc2O)cc1 [Example 6-19]
< 100	O=C(CN1C(=O)NC2(CCC(F)(F)CC2)C1=O)c1ccc(-c2nccc3[nH]ncc23)cc1 [Example 6-20]
< 100	O=C(CN1C(=O)NC2(CCC(F)(F)CC2)C1=O)c1ccc(-c2cccc3nccn23)cc1 [Example 6-21]
< 100	O=C(CN1C(=O)NC2(CCC(F)(F)CC2)C1=O)c1ccc(-c2ncccc2Cl)cc1 [Example 6-22]
< 100	O=C(CN1C(=O)NC2(CCC(F)(F)CC2)C1=O)c1ccc(-c2ncnc3[nH]ncc23)cc1 [Example 6-23]
< 100	O=C(CN1C(=O)NC2(CCC(F)(F)CC2)C1=O)c1ccc(-c2nccc3[nH]ccc23)cc1 [Example 6-24]
< 100	O=C(CN1C(=O)NC2(CCC(F)(F)CC2)C1=O)c1ccc(-c2nccc3ccccc23)cc1 [Example 6-25]
< 100	N#Cc1cccc(-c2ccc(C(=O)CN3C(=O)NC4(CCC(F)(F)CC4)C3=O)cc2)n1 [Example 6-26]
< 100	O=C(CN1C(=O)NC2(CCC(F)(F)CC2)C1=O)c1ccc(-c2ncccc2F)cc1 [Example 6-27]
< 100	Cc1cncc(-c2ccc(C(=O)CN3C(=O)NC4(CCC(F)(F)CC4)C3=O)cc2)n1 [Example 6-28]
< 100	Cc1ccsc1-c1ccc(C(=O)CN2C(=O)NC3(CCC(F)(F)CC3)C2=O)cc1 [Example 6-29]
< 100	O=C(CN1C(=O)NC2(CCC(F)(F)CC2)C1=O)c1ccc(-c2cccc3nccnc23)cc1 [Example 6-30]
< 100	O=C(CN1C(=O)NC2(CCC(F)(F)CC2)C1=O)c1ccc(-c2nccc3occc23)cc1 [Example 6-31]

The next lines start with the compound.

SMILES	IC50 [nM]
Cc1nc2ccccc2n1-c1ccc(C(=O)CN2C(=O)NC3(CCCCCC3)C2=O)cc1 [Example 5-13]	< 100
Cc1nc2ccccc2n1-c1ccc(C(=O)CN2C(=O)NC3(CCC(F)(F)CC3)C2=O)cn1 [Example 5-14]	< 10
O=C(CN1C(=O)NC2(CCC(F)(F)CC2)C1=O)c1ccc(-n2c(CO)nc3ccccc32)cc1 [Example 5-15, 8,8-difluoro-3-(2-(4-(2-(hydroxymethyl)-1H-benzo[d]imidazol-1-yl)phenyl)-2-oxoethyl)-1,3-diazaspiro[4.5]decane-2,4-dione]	< 100
NCc1nc2ccccc2n1-c1ccc(C(=O)CN2C(=O)NC3(CCC(F)(F)CC3)C2=O)cc1 [Example 5-16, 3-(2-(4-(2-(aminomethyl)-1H-benzo[d]imidazol-1-yl)phenyl)-2-oxoethyl)-8,8-difluoro-1,3-diazaspiro[4.5]decane-2,4-dione]	< 500
O=C(CN1C(=O)NC2(CCC(F)(F)CC2)C1=O)c1ccc(Oc2ccccn2)cc1 [Example 5-17]	< 100
O=C(CN1C(=O)NC2(CCCCC2)C1=O)c1ccc(Oc2ccccn2)cc1 [Example 5-18]	< 100
O=C(CN1C(=O)NC2(CCCCC2)C1=O)c1ccc(Oc2ccccc2)cc1 [Example 5-19]	< 100
O=C(CN1C(=O)NC2(CCC(F)(F)CC2)C1=O)c1ccc(Oc2ncccn2)cc1 [Example 5-20]	< 100
O=C(CN1C(=O)NC2(CCC(F)(F)CC2)C1=O)c1ccc(Oc2ncccn2)cc1 [Example 5-21]	< 500
O=C(CN1C(=O)NC2(CCC(F)(F)CC2)C1=O)c1ccc(Oc2cccnn2)cc1 [Example 5-22]	< 100
O=C(CN1C(=O)NC2(CCC(F)(F)CC2)C1=O)c1ccc(Oc2ccccc2)nc1 [Example 5-23]	< 500
O=C(CN1C(=O)NC2(CCCCC2)C1=O)c1ccc(Oc2ccccc2)nc1 [Example 5-24]	< 500
Cc1ccncc1-c1ncc(C(=O)CN2C(=O)NC3(CCC(F)(F)CC3)C2=O)cc1Cl [Example 5-25]	< 100
Cc1ccnnc1-c1ccc(C(=O)CN2C(=O)NC3(CCCCCC3)C2=O)cc1 [Example 5-26]	< 100
Cc1ccc2nc(C)n(-c3ccc(C(=O)CN4C(=O)NC5(CCC(F)(F)CC5)C4=O)cc3)c2n1 [Example 5-27]	< 10
Cc1ccc2nc(C)n(-c3ccc(C(=O)CN4C(=O)NC5(CCCCCC5)C4=O)cc3)c2n1 [Example 5-30]	< 100
Cc1nc2ccc(C(F)(F)F)nc2n1-c1ccc(C(=O)CN2C(=O)NC3(CCC(F)(F)CC3)C2=O)cc1 [Example 5-31]	< 100
Cc1nc2cccnc2n1-c1ccc(C(=O)CN2C(=O)NC3(CCCCCC3)C2=O)cc1 [Example 5-32]	< 100
Cc1nc2cccnc2n1-c1ccc(C(=O)CN2C(=O)NC3(CCCCC3)C2=O)cn1 [Example 5-33]	< 100
O=C(CN1C(=O)NC2(CCC(F)(F)CC2)C1=O)c1ccc(Sc2ncccn2)cc1 [Example 5-39]	< 100
O=C(CN1C(=O)NC2(CCCCC2)C1=O)c1ccc(Oc2cccnn2)cc1 [Example 5-40]	< 500
O=C(CN1C(=O)NC2(CCCCCC2)C1=O)c1ccc(Oc2cccnn2)cc1 [Example 5-41]	< 100
